The values that follow come from patent US8318504B2, “MRP2 efflux pathway prognostic method” (priority 2009, dated 2012).

The target in data set [1] is T1, ABCB11 (Homo sapiens, UniProt O95342).
T1 construct: His tag (inferred from the anti-his probe used on the Western blot); made in house; host or cells: Sf21 insect cells, baculovirus (gift from Thompson); plasma membrane vesicles
The data set can be described thus: CLF inhibition of TC transport into ABCB11 containing Sf21 membrane vesicles. Type of data set: biochemical. The following applies: ATP-dependent transport, read-out: concentration of CLF at which half maximal TC transport was observed. The procedure: (§1) FIGS. 5A and 5B show CLF inhibition of DNP-SG and TC transport into ABCC2 (A) and ABCB11 (B) protein containing Sf21 membrane vesicles respectively. The values are expressed as a percentage of maximal ATP-dependent transport. Significance was tested using two-sided Student's t-test: *P<0.05 for transport in the presence vs. absence of inhibitor.
(§2) The production of recombinant baculovirus was as described by de Waart et al. [Liver Int 2006 April; 26(3):362-368]. ABCC3 and ABCG2-recombinant baculovirus were a kind gift from Borst [Breedveld P. et al., Cancer Res 2004 Aug. 15; 64(16):5804-5811 and Borst P. et al., J Biol Chem 2001 Dec. 7; 276(49):46400-46407.]. ABCB11-recombinant baculovirus was a kind gift from Thompson [Thompson R J et al., Gastroenterology 2002 November; 123(5):1649-1658]. Sf21 cells grown at 27° C. were infected with ABCB11, ABCC2, ABCC3 and ABCG2-cDNA containing baculovirus. Cells were harvested at 2-4 days after infection. […]
(§3) Transport studies with membrane vesicles were performed using the rapid filtration technique as described by Heijn M et al. [Am J Physiol 1992 January; 262(1 Pt 1):C104-C110]. Radiolabel was measured with a scintillation counter. […] Samples were pipetted in 96-well plates (Kartell, Noviglio, Italy) and the amount CLF quantitated by measurement of fluorescence at λexe 485 nm and λcm 520 nm using a NovoStar (BMG-labtech, Offenburg, Germany).

A further data set deals with T2, OATP1B3 (Homo sapiens, UniProt Q9NPD5).
T2 construct: expressed in transfected cells; host or cells: CHO cells (stably transfected; Treiber et al. 2007)
T2 sequence (Q9NPD5 1-702): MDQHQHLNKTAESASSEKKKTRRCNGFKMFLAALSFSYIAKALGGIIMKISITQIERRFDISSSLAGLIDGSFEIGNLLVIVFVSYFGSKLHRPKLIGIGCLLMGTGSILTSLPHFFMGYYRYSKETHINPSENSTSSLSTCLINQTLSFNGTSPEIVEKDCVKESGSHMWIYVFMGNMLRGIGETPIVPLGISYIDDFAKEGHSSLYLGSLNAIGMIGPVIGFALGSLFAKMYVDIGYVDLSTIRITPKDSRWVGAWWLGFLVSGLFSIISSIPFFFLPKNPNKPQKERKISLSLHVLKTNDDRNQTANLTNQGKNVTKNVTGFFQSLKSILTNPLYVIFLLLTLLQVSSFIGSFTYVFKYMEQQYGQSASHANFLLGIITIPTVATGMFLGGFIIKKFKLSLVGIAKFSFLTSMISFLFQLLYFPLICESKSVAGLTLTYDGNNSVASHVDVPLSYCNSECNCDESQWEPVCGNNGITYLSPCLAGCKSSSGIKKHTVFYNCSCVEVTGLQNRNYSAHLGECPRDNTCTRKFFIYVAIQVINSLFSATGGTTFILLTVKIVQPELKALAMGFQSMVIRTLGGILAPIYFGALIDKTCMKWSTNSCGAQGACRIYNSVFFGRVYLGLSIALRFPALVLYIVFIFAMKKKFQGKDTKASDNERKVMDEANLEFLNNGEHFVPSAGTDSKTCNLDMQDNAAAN
The data set can be described thus: Uptake of CLF into CHO cells expressing OATP1B3. Type of data set: cell-based. Also noted: Vmax of OATP1B3 mediated CLF transport: unit not given here. How it is done: cDNA for human NTCP [Hagenbuch et al., J Clin Invest 1994 March; 93(3): 1326-1331] was cut with EcoRV and HindI and the coding region ligated into pcDNA5/FRT (Invitrogen, Life-Technologies, Carlsbad, Calif.). CHO FlpIn cells (Invitrogen, Life-Technologies) were transfected with the resulting construct using Lipofectamine® 2000 (Invitrogen, Life-Technologies). Stably transfected cells were selected with 550 μg Hygromycin-B in HAM-F12 medium (Gibco, Invitrogen, Life-Technologies). Transfected cells were cloned with the limiting dilution method. […] To further characterize the cloned cells, immunofluorescence localization of NTCP using a polyclonal antibody against NTCP [Kullak-Ublick G et al., Gastroenterology 1997 October; 113(4):1295-1305] was performed as described by Huber R D et al. [Am J Physiol Cell Physiol 2007 February; 292(2):[…]-[…]]. CHO cells expressing OATP1B1, OATP1B3 and OATP2B1 were described previously [Treiber et al., DMD 35:1400-1407, 2007]. For all transport experiments, cells grown on 3 cm culture dishes were cultured for 24 hours in media supplemented with 5 mmol/L sodium-butyrate to increase expression levels of transfected transporters [Palermo D P et al., J Biotechnol 1991 June; 19(1):35-47]. • Transport experiments with uptake of radioactively labeled substrates: These experiments were performed as described by Huber R D et al. […] Uptake was performed in the same buffers as for the radioactive substrates above. For visualization of CLF uptake, cells were immediately inspected with a Leica-DM-IRBE-inverted-microcope (Leica-Microsystems, Wetzlar, Germany) equipped with a Hamamatsu-ORKA-ER-camera (Hamamatsu-Photonoics, Japan). To determine uptake of CLF, cells were solubilized by the addition of 2 ml 1% (w/v) Triton-X-100. After complete solubilization, 1.5 ml was used to measure fluorescence in a Perkin-Elmer LS-5 luminescence-spectrometer set at λexe 486 nm (slit 10 nm) and λem 520 nm (slit 5 nm). Protein was determined with the bicinchoninic acid method using a kit from Interchim (Montfuçon, France). […]

The target of the next data set is T3, ABCC2 (Homo sapiens, UniProt Q92887).
T3 construct: made in house; host or cells: Sf21 insect cells, baculovirus; plasma membrane vesicles
The data set can be described thus: CLF inhibition of DNP-SG transport into ABCC2 containing Sf21 membrane vesicles. Type of data set: biochemical. The following applies: ATP-dependent transport, read-out: Half maximal inhibition of DNP-SG transport with CLF. How it is done:
as §1, §2, §3

Data set [2] has as its target T1, ABCB11. The data set can be described thus: ATP-dependent transport of CLF into Sf21 membrane vesicles containing ABCB11. The class given is biochemical. The following applies: compared with control vesicles. The procedure: The production of recombinant baculovirus was as described by de Waart et al. [Liver Int 2006 April; 26(3):362-368]. ABCC3 and ABCG2-recombinant baculovirus were a kind gift from Borst [Breedveld P. et al., Cancer Res 2004 Aug. 15; 64(16):5804-5811 and Borst P. et al., J Biol Chem 2001 Dec. 7; 276(49):46400-46407.]. ABCB11-recombinant baculovirus was a kind gift from Thompson [Thompson R J et al., Gastroenterology 2002 November; 123(5):1649-1658]. Sf21 cells grown at 27° C. were infected with ABCB11, ABCC2, ABCC3 and ABCG2-cDNA containing baculovirus. Cells were harvested at 2-4 days after infection. Membrane vesicle preparation was as described by de Waart et al. [Liver Int 2006 April; 26(3):362-368].
Transport studies with membrane vesicles were performed using the rapid filtration technique as described by Heijn M et al. [Am J Physiol 1992 January; 262(1 Pt 1):C104-C110]. Radiolabel was measured with a scintillation counter. When CLF was used as a probe, filters were placed in a glass tube, 0.1% Triton-X-100 was added and the tubes vortexed. Samples were pipetted in 96-well plates (Kartell, Noviglio, Italy) and the amount CLF quantitated by measurement of fluorescence at λexe 485 nm and λcm 520 nm using a NovoStar (BMG-labtech, Offenburg, Germany).

T1 sequence (O95342 whole entry): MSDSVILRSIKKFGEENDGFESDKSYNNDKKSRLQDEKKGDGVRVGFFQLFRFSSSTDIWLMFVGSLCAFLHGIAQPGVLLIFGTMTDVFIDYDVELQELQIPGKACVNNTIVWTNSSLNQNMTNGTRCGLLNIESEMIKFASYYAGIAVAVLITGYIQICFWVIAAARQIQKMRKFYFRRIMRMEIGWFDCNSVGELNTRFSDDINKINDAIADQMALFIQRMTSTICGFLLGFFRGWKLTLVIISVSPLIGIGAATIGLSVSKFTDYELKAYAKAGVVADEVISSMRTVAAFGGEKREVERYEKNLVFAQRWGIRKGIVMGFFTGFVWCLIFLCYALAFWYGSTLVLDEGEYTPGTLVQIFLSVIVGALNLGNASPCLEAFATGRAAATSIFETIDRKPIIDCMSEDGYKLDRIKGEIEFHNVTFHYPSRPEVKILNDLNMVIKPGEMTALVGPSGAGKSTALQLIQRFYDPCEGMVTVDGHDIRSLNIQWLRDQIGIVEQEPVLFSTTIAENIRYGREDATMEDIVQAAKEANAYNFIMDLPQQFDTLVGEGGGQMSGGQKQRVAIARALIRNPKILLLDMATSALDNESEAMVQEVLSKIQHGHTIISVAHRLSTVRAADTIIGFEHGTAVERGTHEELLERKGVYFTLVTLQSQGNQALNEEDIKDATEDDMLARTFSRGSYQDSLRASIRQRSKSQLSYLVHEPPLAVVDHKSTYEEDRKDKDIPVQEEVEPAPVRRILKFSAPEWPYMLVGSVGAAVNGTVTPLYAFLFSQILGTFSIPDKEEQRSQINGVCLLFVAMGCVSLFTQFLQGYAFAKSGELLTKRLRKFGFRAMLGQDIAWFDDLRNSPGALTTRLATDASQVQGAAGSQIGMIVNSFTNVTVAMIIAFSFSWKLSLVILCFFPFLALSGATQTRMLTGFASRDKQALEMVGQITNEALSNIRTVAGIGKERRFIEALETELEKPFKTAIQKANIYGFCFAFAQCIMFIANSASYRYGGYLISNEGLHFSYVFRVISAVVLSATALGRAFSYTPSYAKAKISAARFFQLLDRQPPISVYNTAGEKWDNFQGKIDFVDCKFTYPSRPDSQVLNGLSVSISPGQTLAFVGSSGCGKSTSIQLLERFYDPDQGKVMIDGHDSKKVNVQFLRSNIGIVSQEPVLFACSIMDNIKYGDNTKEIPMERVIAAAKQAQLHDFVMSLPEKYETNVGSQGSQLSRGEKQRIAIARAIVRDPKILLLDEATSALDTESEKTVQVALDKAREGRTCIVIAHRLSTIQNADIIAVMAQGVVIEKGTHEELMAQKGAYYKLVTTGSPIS
T3 sequence (Q92887 whole entry): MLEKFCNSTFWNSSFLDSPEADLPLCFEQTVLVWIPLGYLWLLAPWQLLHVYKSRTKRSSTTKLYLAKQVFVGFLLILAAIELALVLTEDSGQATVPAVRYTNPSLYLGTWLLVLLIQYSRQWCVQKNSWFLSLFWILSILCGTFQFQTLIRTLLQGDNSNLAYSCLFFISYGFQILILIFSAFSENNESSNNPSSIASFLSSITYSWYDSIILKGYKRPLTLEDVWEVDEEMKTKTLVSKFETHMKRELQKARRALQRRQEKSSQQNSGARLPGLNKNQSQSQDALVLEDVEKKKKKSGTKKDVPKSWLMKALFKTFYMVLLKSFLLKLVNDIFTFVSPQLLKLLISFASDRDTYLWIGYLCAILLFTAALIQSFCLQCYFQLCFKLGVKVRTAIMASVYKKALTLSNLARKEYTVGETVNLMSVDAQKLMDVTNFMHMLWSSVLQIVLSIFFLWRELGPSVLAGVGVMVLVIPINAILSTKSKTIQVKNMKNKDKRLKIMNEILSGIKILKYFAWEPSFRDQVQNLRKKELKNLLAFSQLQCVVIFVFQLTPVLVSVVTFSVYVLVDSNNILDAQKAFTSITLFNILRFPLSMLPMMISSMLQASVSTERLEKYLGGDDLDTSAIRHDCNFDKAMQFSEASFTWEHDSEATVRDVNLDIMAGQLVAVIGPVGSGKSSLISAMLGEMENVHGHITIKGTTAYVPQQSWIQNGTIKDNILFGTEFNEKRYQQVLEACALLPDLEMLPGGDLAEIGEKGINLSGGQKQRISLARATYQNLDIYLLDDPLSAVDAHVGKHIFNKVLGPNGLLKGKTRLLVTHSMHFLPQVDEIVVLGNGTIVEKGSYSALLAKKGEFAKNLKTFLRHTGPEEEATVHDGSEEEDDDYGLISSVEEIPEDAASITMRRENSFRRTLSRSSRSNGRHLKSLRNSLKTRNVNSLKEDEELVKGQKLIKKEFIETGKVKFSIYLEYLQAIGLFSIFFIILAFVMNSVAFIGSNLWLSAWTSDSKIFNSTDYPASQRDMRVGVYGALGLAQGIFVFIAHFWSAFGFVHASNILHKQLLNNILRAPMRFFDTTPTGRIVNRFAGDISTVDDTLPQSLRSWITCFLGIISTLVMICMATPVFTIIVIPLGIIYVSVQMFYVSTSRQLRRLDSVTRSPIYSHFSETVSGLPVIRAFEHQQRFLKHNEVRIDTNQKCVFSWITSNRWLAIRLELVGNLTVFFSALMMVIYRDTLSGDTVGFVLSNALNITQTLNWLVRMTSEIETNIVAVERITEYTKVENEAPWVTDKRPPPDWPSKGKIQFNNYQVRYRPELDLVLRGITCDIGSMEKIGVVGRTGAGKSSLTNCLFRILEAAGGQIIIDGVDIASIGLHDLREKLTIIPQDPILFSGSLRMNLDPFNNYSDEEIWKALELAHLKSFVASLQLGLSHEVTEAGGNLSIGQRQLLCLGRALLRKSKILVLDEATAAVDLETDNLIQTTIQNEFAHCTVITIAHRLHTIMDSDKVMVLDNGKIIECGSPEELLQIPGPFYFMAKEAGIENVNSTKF

By Km is commonly meant the concentration of substrate that gives half-maximal velocity. Turning to `CC(CCC(=O)NC(CCCCNC(=S)Nc1ccc(-c2c3ccc(=O)cc-3oc3cc(O)ccc23)c(C(=O)O)c1)C(=O)O)C1CCC2C3C(O)CC4CC(O)CCC4(C)C3CC(O)C12C` (stereo not drawn) [CLF, cholyl lysyl fluorescein], the IC50 on ABCB11 [1] is roughly 10 µM; on ABCC2, roughly 1 µM. Further, the “uptake of CLF into OATP1B3 expressing cells” value at OATP1B3 (1 μmol/L CLF, 1 or 5 minutes) is given as “clear uptake”. Besides, on OATP1B3 (45 seconds, mean of three independent determinations), the “Vmax of OATP1B3 mediated CLF transport” value was determined as 213±42. On OATP1B3 (human, CHO cells expressing OATP1B3, 45 seconds, mean of three independent determinations, read-out: Km of OATP1B3 mediated CLF transport), the Km at 45 seconds was found to be 4.6 ± 2.7 µM. On ABCB11 [2], the “ATP-dependent transport of CLF in ABCB11 containing membrane vesicles” value is “not higher than in control vesicles”.
